The text below walks through data of ChEMBL document CHEMBL1201862, “PubChem BioAssay data set” (2004).

Each structure is given as a SMILES string.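 Where inhibition never reached the appropriate level, the endpoint shown equals the highest concentration tested. Otherwise, values were interpolated linearly from a five-concentration, 48-hour dose response in 96-well plates. GI50 = concentration required for 50% inhibition of growth.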 Activity calls are given as the source filed them. No stated cut-off is given here; in the data, active = GI50 up to about 1.1 µM and inactive = higher.

Among the test systems are HCT-116; HT-29; SN12C; MOLT-4; KM12; CAKI-1; M14; SK-MEL-28; SF-539; UO-31; A549; HOP-92; OVCAR-4; SK-MEL-5; SK-MEL-2; MCF7; NCI/ADR-RES; MDA-MB-435; MDA-MB-231.
Common to all, as to assay: NCI tumour cell line growth inhibition, 48 h

Regarding `CC[C@@]12N=C(N(C)C)C[C@]1(O)ON=C2C`, the GI50 in the test on HCT-116, in the test on HT-29, in the test with SN12C, in the test with MOLT-4, in the test on KM12 and in the test with CAKI-1 was > 100 µM (inactive) throughout. The GI50 with M14, in the test on SK-MEL-28, in the test on SF-539, in the test with UO-31, in the test on A549 and with HOP-92 was > 100 µM (inactive) each time. Moreover, the GI50 in the test on OVCAR-4, in the test on SK-MEL-5 and in the test on SK-MEL-2 was > 100 µM (inactive) each time.
Consider `CC12CCC(CC1)C(C)(C)O2` [EUCALYPTOL], for which the GI50 with HT-29 is 59.4 µM (inactive); in the test with SN12C, 7.08 µM (inactive); with MOLT-4 it was 13.7 µM (inactive); with KM12, 33.9 µM (inactive); in the test on MCF7, 0.644 µM (active); in the test on M14 it was > 100 µM (inactive). The GI50 with NCI/ADR-RES is 45.2 µM (inactive); in the test on SK-MEL-28, 62.4 µM (inactive); in the test on SF-539, 18.3 µM (inactive); in the test with UO-31, 27.7 µM (inactive); in the test on HOP-92, 24.3 µM (inactive); with OVCAR-4, 61.1 µM (inactive). Also, the GI50 with SK-MEL-5 was 5.5 µM (inactive); with SK-MEL-2 it was 47.3 µM (inactive).
As to `Cc1ccccc1-c1c(N)nc(N)nc1C(=O)Nc1nccs1`, the GI50 in the test with HCT-116, with HT-29, in the test on SN12C, in the test with MOLT-4, in the test on KM12 and in the test on CAKI-1 was > 100 µM (inactive) throughout. Moreover, the GI50 in the test with M14, with SK-MEL-28, in the test on SF-539, in the test on UO-31, with A549 and in the test on HOP-92 was > 100 µM (inactive) in each case. For the same molecule, the GI50 in the test on OVCAR-4, in the test with SK-MEL-5 and in the test with SK-MEL-2 was > 100 µM (inactive) in each case.
With `CN(C)CCOc1cccc2c1C(=O)c1ccccc1C2=O`, the GI50 was 4.58 µM (inactive) with HCT-116; 6.37 µM (inactive) with HT-29; 9.06 µM (inactive) with SN12C; 3.45 µM (inactive) with MOLT-4; 10.8 µM (inactive) in the test on KM12; 14.7 µM (inactive) with CAKI-1. Further, the GI50 was 13.5 µM (inactive) with M14; 15.3 µM (inactive) in the test with SK-MEL-28; 10.4 µM (inactive) in the test on SF-539; 4.52 µM (inactive) with UO-31; 13.7 µM (inactive) with A549; 11.8 µM (inactive) in the test on HOP-92. The results for the GI50 in the test with OVCAR-4, in the test on SK-MEL-5 and with SK-MEL-2 were 6.14 µM (inactive), 12.8 µM (inactive) and 14.2 µM (inactive), respectively.
Take `CC(C)(C)OC(=O)N1N=NC2C3OC(CC3=O)C21` (centres undefined): the GI50 in the test with HCT-116 is > 100 µM (inactive); in the test on HT-29 it was > 100 µM (inactive); in the test on SN12C, > 100 µM (inactive); in the test with MOLT-4, > 100 µM (inactive); with KM12, > 10 µM (inactive); in the test with CAKI-1, > 100 µM (inactive). The GI50 in the test with M14, with SK-MEL-28, with SF-539, in the test with UO-31, in the test on A549 and with HOP-92 was > 100 µM (inactive) in each case. In addition, the GI50 in the test with OVCAR-4 was > 10 µM (inactive); with SK-MEL-5 it was > 10 µM (inactive); with SK-MEL-2 it was > 100 µM (inactive).
In the case of `Cc1cn(C2CC(ON3C(=O)c4ccccc4C3=O)C(CO)O2)c(=O)[nH]c1=O` (centres undefined), the GI50 in the test with HCT-116, with HT-29, with SN12C, in the test with MOLT-4, in the test with KM12 and in the test with MCF7 was > 10 µM (inactive) in each case. Further, the GI50 in the test with M14 is > 10 µM (inactive); in the test with NCI/ADR-RES it was > 10 µM (inactive); in the test with SF-539, > 10 µM (inactive); with UO-31 it was > 10 µM (inactive); with A549, > 10 µM (inactive); in the test with HOP-92, 0.855 µM (active). Besides, the GI50 with OVCAR-4, with MDA-MB-435 and in the test with SK-MEL-2 was > 10 µM (inactive) throughout.
As to `NC1=C(NC(=O)Cc2ccc(F)cc2)C(=O)c2ccccc2C1=O`, the GI50 in the test with HCT-116 is 32 µM (inactive); with HT-29, > 100 µM (inactive); in the test with SN12C it was > 100 µM (inactive); with MOLT-4, > 67.9 µM (inactive); in the test with KM12, > 76.9 µM (inactive); with CAKI-1, > 100 µM (inactive). Further, the GI50 in the test on M14 was 43.8 µM (inactive); in the test with SK-MEL-28, > 100 µM (inactive); with SF-539, > 78 µM (inactive); in the test on UO-31, 58.1 µM (inactive); in the test with A549, 85.3 µM (inactive); with HOP-92, 23.8 µM (inactive). In addition, the values for the GI50 with OVCAR-4, in the test with SK-MEL-5 and in the test with SK-MEL-2 were > 100 µM (inactive), 14.4 µM (inactive) and > 60 µM (inactive), respectively.
In the case of `S=C(Nc1ccc(/N=N/c2ccccc2)cc1)SCc1ccccc1`, the GI50 is 14.8 µM (inactive) in the test on HCT-116; 23.6 µM (inactive) in the test on HT-29; 15.7 µM (inactive) in the test with SN12C; 14.7 µM (inactive) in the test on MDA-MB-231; 12.1 µM (inactive) in the test on MOLT-4; 16.2 µM (inactive) in the test with KM12. The GI50 is 23.3 µM (inactive) in the test on MCF7; 16.5 µM (inactive) in the test on CAKI-1; 17.3 µM (inactive) in the test on M14; 17.8 µM (inactive) in the test with NCI/ADR-RES; 18.1 µM (inactive) with SK-MEL-28; 18.4 µM (inactive) in the test on SF-539. Moreover, the GI50 in the test with UO-31 was 18.8 µM (inactive); in the test on A549, 16.9 µM (inactive); in the test on HOP-92, 13.4 µM (inactive); in the test with OVCAR-4, 16.1 µM (inactive); in the test on SK-MEL-5 it was 15.7 µM (inactive); with MDA-MB-435 it was 16.2 µM (inactive). In the test with SK-MEL-2, the GI50 was 21.4 µM (inactive).
Turning to `Cn1c(O)c(C(=O)Nc2ccc([N+](=O)[O-])cc2)c(=O)n(C)c1=S`, the GI50 is 2.26 µM (inactive) with HCT-116; 2.23 µM (inactive) in the test on HT-29; 3.13 µM (inactive) in the test with SN12C; 2.54 µM (inactive) in the test on MDA-MB-231; 3.08 µM (inactive) in the test with MOLT-4; 2.49 µM (inactive) with KM12. For the same molecule, the GI50 in the test with MCF7 is 1.78 µM (inactive); in the test on CAKI-1 it was 2.81 µM (inactive); in the test on M14, 3.37 µM (inactive); with NCI/ADR-RES, 2.79 µM (inactive); with SK-MEL-28, 1.88 µM (inactive); in the test on SF-539 it was 1.9 µM (inactive). In addition, the GI50 in the test on UO-31 was 1.54 µM (inactive); in the test with A549, 3.42 µM (inactive); in the test on HOP-92, 1.54 µM (inactive); with OVCAR-4, 2.71 µM (inactive); in the test on SK-MEL-5, 0.776 µM (active); with MDA-MB-435, 1.51 µM (inactive). In addition, the GI50 in the test on SK-MEL-2 was 1.82 µM (inactive).
With `C=CC1(C)CC(=O)C2(O)C(C)(O1)C(OC(C)=O)C(O)C1C(C)(C)CCC(O)C12C` (centres undefined), the GI50 in the test with HCT-116 is 128 µM (inactive); in the test on HT-29, 49.8 µM (inactive); in the test on SN12C it was 30.6 µM (inactive); in the test on MOLT-4, 28.6 µM (inactive); with KM12 it was 0.863 µM (active); in the test with MCF7, 81.7 µM (inactive). Besides, the GI50 in the test on CAKI-1 is 1.37 µM (inactive); with M14 it was > 100 µM (inactive); with NCI/ADR-RES, 70.6 µM (inactive); in the test with SK-MEL-28 it was > 150 µM (inactive); in the test with SF-539, 33.1 µM (inactive); in the test on UO-31, 30.5 µM (inactive). In addition, the GI50 in the test on A549 is > 150 µM (inactive); with HOP-92 it was > 150 µM (inactive); in the test on OVCAR-4, > 54.8 µM (inactive); with SK-MEL-5, 89.3 µM (inactive); in the test with SK-MEL-2 it was > 143 µM (inactive).
Regarding `C=C(C)[C@H]1CC[C@@]2(C)C(C1)[C@H](C)CC[C@@H]2O` (some centres undefined), the GI50 in the test on HCT-116 is > 100 µM (inactive); with HT-29 it was 70.5 µM (inactive); in the test with SN12C it was > 100 µM (inactive); in the test on MOLT-4, 88.3 µM (inactive); in the test on KM12, > 100 µM (inactive); with CAKI-1 it was > 100 µM (inactive). The GI50 with M14, with SK-MEL-28, in the test on SF-539, in the test on UO-31, in the test with A549 and in the test with HOP-92 was > 100 µM (inactive) throughout. In addition, the GI50 in the test on OVCAR-4, with SK-MEL-5 and with SK-MEL-2 was > 100 µM (inactive) throughout.
`COC(=O)C1Cc2c([nH]c3ccccc23)C(c2ccccc2O)N1` (centres undefined): the GI50 is 66.8 µM (inactive) in the test with HCT-116; 44.9 µM (inactive) in the test on HT-29; 55.2 µM (inactive) with SN12C; 41.9 µM (inactive) in the test with MOLT-4; 60.3 µM (inactive) in the test on KM12; 98.6 µM (inactive) in the test on CAKI-1. Further, the GI50 was 93.8 µM (inactive) in the test on M14; > 100 µM (inactive) in the test on SK-MEL-28; 34.1 µM (inactive) in the test on SF-539; 43.1 µM (inactive) in the test with UO-31; 43 µM (inactive) in the test with A549; > 100 µM (inactive) in the test with HOP-92. The values for the GI50 in the test on OVCAR-4, in the test on SK-MEL-5 and in the test on SK-MEL-2 were 53.5 µM (inactive), 59 µM (inactive) and > 100 µM (inactive), respectively.
